Data reported in patent US7998978B2 (Pfizer Inc., priority 2006, dated 2011).

biological target: T1, JNK1α1 (Homo sapiens, UniProt P45983); assay: Coupled spectrophotometric (PK/LDH) JNK1α1 assay: % inhibition and Ki determination; type: biochemical; details: JNK-1
T1 construct: catalytic domain containing amino acids 1-364 and N-terminal hexahistidine tag; hexahistidine (His6) (N); made in house; host or cells: E. coli BL21 (DE3)
Procedure, shortened: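 Initial rates were taken from the absorbance decrease at 340 nm at 30° C. Ki was fitted with a tight-binding model over 11 concentrations (top 100 μM); single-point inhibition was tested at 1 or 10 μM.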

T1 sequence (P45983 1-364): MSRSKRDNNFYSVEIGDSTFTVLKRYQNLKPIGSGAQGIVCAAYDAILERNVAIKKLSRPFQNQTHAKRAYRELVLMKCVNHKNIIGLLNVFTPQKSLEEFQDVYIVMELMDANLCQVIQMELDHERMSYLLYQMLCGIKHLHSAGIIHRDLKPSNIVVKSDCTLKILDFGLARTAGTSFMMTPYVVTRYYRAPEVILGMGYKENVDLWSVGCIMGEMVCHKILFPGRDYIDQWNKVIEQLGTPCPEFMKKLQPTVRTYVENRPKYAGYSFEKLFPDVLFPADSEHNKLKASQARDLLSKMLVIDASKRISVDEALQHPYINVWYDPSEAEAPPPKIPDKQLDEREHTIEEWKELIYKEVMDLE

Compound	Ki [nM]
O=C(N[C@H]1CC[C@H](CO)CC1)c1ccc2cnc(N[C@H]3CC[C@H](O)CC3)nc2c1 [Example 345, 2-[(trans-4-hydroxycyclohexyl)amino]-N-[trans-4-(hydroxymethyl)cyclohexyl]quinazoline-7-carboxamide]	885
O=C(NC1CCOC1)c1ccc2cnc(N[C@H]3CC[C@H](O)CC3)nc2c1 (stereo partly drawn) [Example 347, 2-[(trans-4-hydroxycyclohexyl)amino]-N-(tetrahydrofuran-3-yl)quinazoline-7-carboxamide]	963
COc1ccc(NC(=O)c2ccc3cnc(N[C@H]4CC[C@H](O)CC4)nc3c2)cn1 [Example 349, 2-[(trans-4-hydroxycyclohexyl)amino]-N-(6-methoxypyridin-3-yl)quinazoline-7-carboxamide]	1010
CC(C)(CO)NC(=O)c1ccc2cnc(N[C@H]3CC[C@H](O)CC3)nc2c1 [Example 352, 2-[(trans-4-hydroxycyclohexyl)amino]-N-(2-hydroxy-1,1-dimethylethyl)quinazoline-7-carboxamide]	1100
O=C(NCc1nc2cc(F)ccc2[nH]1)c1ccc2cnc(N[C@H]3CC[C@H](O)CC3)nc2c1 [Example 354, N-[(5-fluoro-1H-benzimidazol-2-yl)methyl]-2-[(trans-4-hydroxycyclohexyl)amino]quinazoline-7-carboxamide]	1230
Cc1nnc(CNC(=O)c2ccc3cnc(N[C@H]4CC[C@H](O)CC4)nc3c2)o1 [Example 355, 2-[(trans-4-hydroxycyclohexyl)amino]-N-[(5-methyl-1,3,4-oxadiazol-2-yl)methyl]quinazoline-7-carboxamide]	1390
CCn1cc(CNC(=O)c2ccc3cnc(N[C@H]4CC[C@H](O)CC4)nc3c2)cn1 [Example 356, N-[(1-ethyl-1H-pyrazol-4-yl)methyl]-2-[(trans-4-hydroxycyclohexyl)amino]quinazoline-7-carboxamide]	1480
Cn1ncc(NC(=O)c2ccc3cnc(N[C@H]4CC[C@H](O)CC4)nc3c2)n1 [Example 358, 2-[(trans-4-hydroxycyclohexyl)amino]-N-(2-methyl-2H-1,2,3-triazol-4-yl)quinazoline-7-carboxamide]	1700
CC(C)c1ncc(NC(=O)c2ccc3cnc(N[C@H]4CC[C@H](O)CC4)nc3c2)cn1 [Example 359, 2-[(trans-4-hydroxycyclohexyl)amino]-N-(2-isopropylpyrimidin-5-yl)quinazoline-7-carboxamide]	1720
O=C(NCC1(O)CCOCC1)c1ccc2cnc(N[C@H]3CC[C@H](O)CC3)nc2c1 [Example 360, 2-[(trans-4-hydroxycyclohexyl)amino]-N-[(4-hydroxytetrahydro-2H-pyran-4-yl)methyl]quinazoline-7-carboxamide]	1730
COc1ccnc(NC(=O)c2ccc3cnc(N[C@H]4CC[C@H](O)CC4)nc3c2)c1 [Example 361, 2-[(trans-4-hydroxycyclohexyl)amino]-N-(4-methoxypyridin-2-yl)quinazoline-7-carboxamide]	1810
COc1ncccc1NC(=O)c1ccc2cnc(N[C@H]3CC[C@H](O)CC3)nc2c1 [Example 362]	1810
C[C@H](CO)NC(=O)c1ccc2cnc(N[C@H]3CC[C@H](O)CC3)nc2c1 [Example 363]	1950
CCOC(=O)N1CC[C@@H](NC(=O)c2ccc3cnc(N[C@H]4CC[C@H](O)CC4)nc3c2)C1 [Example 364, ethyl 3-[({2-[(trans-4-hydroxycyclohexyl)amino]quinazolin-7-yl}carbonyl)amino]pyrrolidine-1-carboxylate]	1990
CC(C)(O)c1ccc(CNC(=O)c2ccc3cnc(N[C@H]4CC[C@H](O)CC4)nc3c2)cc1 [Example 366, 2-[(trans-4-hydroxycyclohexyl)amino]-N-[4-(1-hydroxy-1-methylethyl)benzyl]quinazoline-7-carboxamide]	2170
CN(C)C(=O)CNC(=O)c1ccc2cnc(N[C@H]3CC[C@H](O)CC3)nc2c1 [Example 368, N-[2-(dimethylamino)-2-oxoethyl]-2-[(trans-4-hydroxycyclohexyl)amino]quinazoline-7-carboxamide]	2290
Cc1cccc(NC(=O)c2ccc3cnc(N[C@H]4CC[C@H](O)CC4)nc3c2)n1 [Example 369, 2-[(trans-4-hydroxycyclohexyl)amino]-N-(6-methylpyridin-2-yl)quinazoline-7-carboxamide]	2310
O=C(N[C@H](CO)c1ccccc1)c1ccc2cnc(N[C@H]3CC[C@H](O)CC3)nc2c1 [Example 372, 2-[(trans-4-hydroxycyclohexyl)amino]-N-[(1S)-2-hydroxy-1-phenylethyl]quinazoline-7-carboxamide]	73.5
O=C(N[C@H](CO)c1ccccc1)c1ccc2cnc(NC3CCCCC3)nc2c1 [Example 373, 2-(cyclohexylamino)-N-[(1S)-2-hydroxy-1-phenylethyl]quinazoline-7-carboxamide]	74
CC(C)C[C@@H](CO)NC(=O)c1ccc2cnc(NC3CCCCC3)nc2c1 [Example 374, 2-(cyclohexylamino)-N-[(1S)-1-(hydroxymethyl)-3-methylbutyl]quinazoline-7-carboxamide]	102
CC(C)C[C@@H](CO)NC(=O)c1ccc2cnc(N[C@H]3CC[C@H](O)CC3)nc2c1 [Example 375, 2-[(trans-4-hydroxycyclohexyl)amino]-N-[(1S)-1-(hydroxymethyl)-3-methylbutyl]quinazoiine-7-carboxamide]	107
CCC[C@@H](CO)NC(=O)c1ccc2cnc(NC3CCCCC3)nc2c1 [Example 376, 2-(cyclohexylamino)-N-[(1S)-1-(hydroxymethyl)butyl]quinazoline-7-carboxamide]	139

Now from value to compound:

Ki [nM]	Compound
637	O=C(NCCCO)c1ccc2cnc(N[C@H]3CC[C@H](O)CC3)nc2c1 [Example 338, 2-[(trans-4-hydroxycyclohexyl)amino]-N-(3-hydroxypropyl)quinazoline-7-carboxamide]
801	O=C(NCCCn1cccn1)c1ccc2cnc(N[C@H]3CC[C@H](O)CC3)nc2c1 [Example 339, 2-[(trans-4-hydroxycyclohexyl)amino]-N-[3-(1H-pyrazol-1-yl)propyl]quinazolin-7-carboxamide]
836	O=C(NCC1CCCO1)c1ccc2cnc(N[C@H]3CC[C@H](O)CC3)nc2c1 (stereo partly drawn) [Example 340, 2-[(trans-4-hydroxycyclohexyl)amino]-N-(tetrahydrofuran-2-ylmethyl)quinazoline-7-carboxamide]
836	O=C(NCC1(O)CCC1)c1ccc2cnc(N[C@H]3CC[C@H](O)CC3)nc2c1 [Example 341, N-[(1-hydroxycyclobutyl)methyl]-2-[(trans-4-hydroxycyclohexyl)amino]quinazoline-7-carboxamide]
839	O=C(NC1CCCCC1O)c1ccc2cnc(N[C@H]3CC[C@H](O)CC3)nc2c1 (stereo partly drawn) [Example 342, N-(2-hydroxycyclohexyl)-2-[(trans-4-hydroxycyclohexyl)amino]quinazoline-7-carboxamide]
855	O=C(NCCC1CCCCO1)c1ccc2cnc(N[C@H]3CC[C@H](O)CC3)nc2c1 (stereo partly drawn) [Example 343, 2-[(trans-4-hydroxycyclohexyl)amino]-N-[2-(tetrahydro-2H-pyran-2-yl)ethyl]quinazoline-7-carboxamide]
869	O=C(NC1CCS(=O)(=O)C1)c1ccc2cnc(N[C@H]3CC[C@H](O)CC3)nc2c1 (stereo partly drawn) [Example 344, N-(1,1-dioxidotetrahydro-3-thienyl)-2-[(trans-4-hydroxycyclohexyl)amino]quinazoline-7-7-carboxamide]
945	O=C(NCCO)c1ccc2cnc(N[C@H]3CC[C@H](O)CC3)nc2c1 [Example 346, 2-[(trans-4-hydroxycyclohexyl)amino]-N-(2-hydroxyethyl)quinazoline-7-carboxamide]
978	O=C(NCC1CCCCO1)c1ccc2cnc(N[C@H]3CC[C@H](O)CC3)nc2c1 (stereo partly drawn) [Example 348, 2-[(trans-4-hydroxycyclohexyl)amino]-N-(tetrahydro-2H-pyran-2-ylmethyl)quinazoline-7-carboxamide]
1040	O=C(NC[C@H]1C[C@@H]1CO)c1ccc2cnc(N[C@H]3CC[C@H](O)CC3)nc2c1 [Example 350, 2-[(trans-4-hydroxycyclohexyl)amino]-N-{[(1S,2S)-2-(hydroxymethyl)cyclopropyl]methyl} quinazoline-7-carboxamide]
1060	CC(O)CNC(=O)c1ccc2cnc(N[C@H]3CC[C@H](O)CC3)nc2c1 (stereo partly drawn) [Example 351, 2-[(trans-4-hydroxycyclohexyl)amino]-N-(2-hydroxypropyl)quinazoline-7-carboxamide]
1170	O=C(NC1CCCOC1)c1ccc2cnc(N[C@H]3CC[C@H](O)CC3)nc2c1 (stereo partly drawn) [Example 353, 2-[(trans-4-hydroxycyclohexyl)amino]-N-(tetrahydro-2H-pyran-3-yl)quinazoline-7-carboxamide]
2060	CC(=O)N1CCC(NC(=O)c2ccc3cnc(N[C@H]4CC[C@H](O)CC4)nc3c2)CC1 [Example 365, N-(1-acetylpiperidin-4-yl)-2-[(trans-4-hydroxycyclohexyl)amino]quinazoline-7-carboxamide]
2180	O=C(NCCN1CCCC1=O)c1ccc2cnc(N[C@H]3CC[C@H](O)CC3)nc2c1 [Example 367, 2-[(trans-4-hydroxycyclohexyl)amino]-N-[2-(2-oxopyrrolidin-1-yl)ethyl]quinazoline-7-carboxamide]
2470	O=C(NCCN1CCCCC1=O)c1ccc2cnc(N[C@H]3CC[C@H](O)CC3)nc2c1 [Example 370, 2-[(trans-4-hydroxycyclohexyl)amino]-N-(2-(2-oxopiperidin-1-yl)ethyl]quinazoline-7-carboxamide]
2490	CC(=O)N1CC[C@@H](NC(=O)c2ccc3cnc(N[C@H]4CC[C@H](O)CC4)nc3c2)C1 [Example 371, N-[(3R)-1-acetylpyrrolidin-3-yl]-2-[(trans-4-hydroxycyclohexyl)amino]quinazoline-7-carboxamide]
